From ChEMBL document CHEMBL5385924, “Stereoselective Synthesis of Xylodonin A and 22-Hydroxyxylodonin A and Discovery of Analogues with Cytotoxic Activity” (J Nat Prod, 2024)
Calls of active or inactive are those of the source. No cut-off for these calls is given here.

Experiments:
Candida albicans = experiment: Antifungal activity against Candida albicans assessed as inhibition of fungal growth; assay type: functional, organism-based
Pseudomonas aeruginosa = experiment: Antibacterial activity against Pseudomonas aeruginosa assessed as inhibition of bacterial growth; assay type: functional, organism-based
Escherichia coli = experiment: Antibacterial activity against Escherichia coli assessed as inhibition of bacterial growth; assay type: functional, organism-based
Staphylococcus aureus = experiment: Antibacterial activity against Staphylococcus aureus assessed as inhibition of bacterial growth; assay type: functional, organism-based
[1] = tested on: Mycolicibacterium smegmatis; experiment: Antibacterial activity against Mycobacterium smegmatis assessed as inhibition of bacterial growth; assay type: functional, organism-based
HepG2 [2] = experiment: Antiproliferative activity against human HepG2 cells assessed as reduction in cell viability measured after 48 hrs by CCK8 assay; assay type: functional, cell-based; conditions: HepG2, 48 h
Proteus vulgaris = experiment: Antibacterial activity against Proteus vulgaris assessed as inhibition of bacterial growth; assay type: functional, organism-based
Salmonella typhimurium = experiment: Antibacterial activity against Salmonella typhimurium assessed as inhibition of bacterial growth; assay type: functional, organism-based; conditions: Salmonella enterica subsp. enterica serovar Typhimurium
[3] = Selectivity index, ratio of IC50 for cytotoxicity against human HL7702 cells to IC50 for antiproliferative activity against human HepG2 cells; assay type: toxicity, cell-based; conditions: HL7702 cells versus HepG2 cells, read-out: Ratio IC50
[4] = Cytotoxicity against human HL7702 cells assessed as reduction in cell viability measured after 48 hrs by CCK8 assay; assay type: toxicity, cell-based; conditions: HL7702 (L02) cells
HepG2 [5] = experiment: Induction of apoptosis in human HepG2 cells assessed as early apoptotic cells at 20 uM measured after 48 hrs by AnnexinV-FITC/PI staining based flow cytometry (reference value: 1.21%); assay type: functional
HepG2 [6] = experiment: Inhibition of colony formation in human HepG2 cells assessed as relative colony formation area at 10 uM treated every 6 hrs for 24 hrs followed by culturing in fresh medium for 7 days by Giemsa staining based analysis; assay type: functional; design: scale not given: the % may be the effect or the level left
HepG2 [7] = experiment: Induction of apoptosis in human HepG2 cells assessed as early apoptotic cells at 10 uM measured after 48 hrs by AnnexinV-FITC/PI staining based flow cytometry (reference value: 1.21%); assay type: functional
HepG2 [8] = experiment: Induction of apoptosis in human HepG2 cells assessed as necrotic cells at 20 uM measured after 48 hrs by AnnexinV-FITC/PI staining based flow cytometry (reference value: 0.19%); assay type: functional
HepG2 [9] = experiment: Induction of apoptosis in human HepG2 cells assessed as viable cells at 10 uM measured after 48 hrs by AnnexinV-FITC/PI staining based flow cytometry (reference value: 95.88%); assay type: functional; conditions: read-out: Activity
HepG2 [10] = experiment: Induction of apoptosis in human HepG2 cells assessed as late apoptotic cells at 20 uM measured after 48 hrs by AnnexinV-FITC/PI staining based flow cytometry (reference value: 2.73%); assay type: functional
HepG2 [11] = experiment: Induction of apoptosis in human HepG2 cells assessed as late apoptotic cells at 10 uM measured after 48 hrs by AnnexinV-FITC/PI staining based flow cytometry (reference value: 2.73%); assay type: functional
HepG2 [12] = experiment: Inhibition of colony formation in human HepG2 cells assessed as relative colony formation area at 20 uM treated every 6 hrs for 24 hrs followed by culturing in fresh medium for 7 days by Giemsa staining based analysis; assay type: functional; design: scale not given: the % may be the effect or the level left
HepG2 [13] = experiment: Induction of apoptosis in human HepG2 cells assessed as necrotic cells at 10 uM measured after 48 hrs by AnnexinV-FITC/PI staining based flow cytometry (reference value: 0.19%); assay type: functional
HepG2 [14] = experiment: Inhibition of colony formation in human HepG2 cells assessed as relative colony formation area at 5 uM treated every 6 hrs for 24 hrs followed by culturing in fresh medium for 7 days by Giemsa staining based analysis; assay type: functional; design: scale not given: the % may be the effect or the level left
HepG2 [15] = experiment: Induction of apoptosis in human HepG2 cells assessed as viable cells at 20 uM measured after 48 hrs by AnnexinV-FITC/PI staining based flow cytometry (reference value: 95.88%); assay type: functional; conditions: read-out: Activity
HepG2 [16] = experiment: Inhibition of colony formation in human HepG2 cells assessed as relative colony formation area at 15 uM treated every 6 hrs for 24 hrs followed by culturing in fresh medium for 7 days by Giemsa staining based analysis; assay type: functional; design: scale not given: the % may be the effect or the level left
HepG2 [17] = experiment: Antimetastatic activity against human HepG2 cells assessed as inhibition of cell migration measured after 12 to 24 hrs by scratch wound healing assay; assay type: functional, cell-based; conditions: time 12-24 hrs

Row | SMILES | IC50 (HepG2 [2]) | Activity (Candida albicans) | Activity (Pseudomonas aeruginosa) | Activity (Escherichia coli) | Activity (Staphylococcus aureus) | Activity [1] | Activity (Proteus vulgaris) | Activity (Salmonella typhimurium) | selectivity ratio [3] | IC50 at 48 h [4] | other results
1 | CC1(C)CCC[C@]2(C)C3=C(COC3=O)C[C@H](OC(=O)/C=C/c3ccc(Cl)cc3)[C@@H]12 | > 50 µM | inactive | inactive | inactive | inactive | inactive | inactive | inactive |  |  | 
2 | CC1(C)CCC[C@]2(C)C3=C(COC3=O)C[C@H](OC(=O)/C=C/c3ccc(C(F)(F)F)cc3)[C@@H]12 | > 50 µM | inactive | inactive | inactive | inactive | inactive | inactive | inactive |  |  | 
3 | CC1(C)CCC[C@]2(C)C3=C(COC3=O)C[C@H](OC(=O)/C=C/c3ccccc3)[C@@H]12 | > 50 µM | inactive | inactive | inactive | inactive | inactive | inactive | inactive |  |  | 
4 | CC1(C)CCC[C@]2(C)C3=C(COC3=O)C[C@H](O)[C@@H]12 | > 50 µM | inactive | inactive | inactive | inactive | inactive | inactive | inactive |  |  | 

Now those with a lower IC50 (HepG2 [2]), led by results:

Row | IC50 (HepG2 [2]) | SMILES | Activity (Candida albicans) | Activity (Pseudomonas aeruginosa) | Activity (Escherichia coli) | Activity (Staphylococcus aureus) | Activity [1] | Activity (Proteus vulgaris) | Activity (Salmonella typhimurium) | selectivity ratio [3] | IC50 at 48 h [4] | other results
5 | 22.2 µM | CC1(C)CCC[C@]2(C)C3=C(COC3=O)C[C@H](OC(=O)/C=C/c3ccccc3F)[C@@H]12 | inactive | inactive | inactive | inactive | inactive | inactive | inactive | > 4.5 | > 100 µM | 
6 | 8.8 µM | CC(=O)Oc1ccc(/C=C/C(=O)O[C@H]2CC3=C(C(=O)OC3)[C@@]3(C)CCCC(C)(C)[C@H]23)cc1 | inactive | inactive | inactive | inactive | inactive | inactive | inactive | > 11.4 | > 100 µM | Activity (HepG2 [5]): 14.41%; Activity (HepG2 [6]): 8.1%; Activity (HepG2 [7]): 1.73%; Activity (HepG2 [8]): 0.2%; viability at 10 µM (HepG2 [9]): 91%; Activity (HepG2 [10]): 6.23%; Activity (HepG2 [11]): 6.96%; Activity (HepG2 [12]): 2.3%; Activity (HepG2 [13]): 0.27%; Activity (HepG2 [14]): 11.2%; viability at 20 µM (HepG2 [15]): 79.2%; Activity (HepG2 [16]): 5.9%; Activity (HepG2 [17]): Active
7 | 5.9 µM | COc1cc([C@@H]2c3cc4c(cc3[C@@H](O[C@@H]3O[C@@H]5CO[C@@H](C)O[C@H]5[C@H](O)[C@H]3O)[C@H]3COC(=O)[C@H]23)OCO4)cc(OC)c1O [ETOPOSIDE] |  |  |  |  |  |  |  | 8.4 | 49.6 µM | 
8 | 14.2 µM | CC1(C)CCC[C@]2(C)C3=C(COC3=O)C[C@H](OC(=O)/C=C/c3ccc(O)cc3)[C@@H]12 | inactive | inactive | inactive | inactive | inactive | inactive | inactive | > 6.9 | > 100 µM | 
